{
  "source": "patent US20120219615A1",
  "about": "“Therapeutic Use of a TLR Agonist and Combination Therapy” (The Trustees of the University of Pennsylvania, priority 2010, published 2012)",
  "molecular_target": "T1, TLR9 (Homo sapiens, UniProt Q9NR96)",
  "T1 sequence (Q9NR96 26-1032)": "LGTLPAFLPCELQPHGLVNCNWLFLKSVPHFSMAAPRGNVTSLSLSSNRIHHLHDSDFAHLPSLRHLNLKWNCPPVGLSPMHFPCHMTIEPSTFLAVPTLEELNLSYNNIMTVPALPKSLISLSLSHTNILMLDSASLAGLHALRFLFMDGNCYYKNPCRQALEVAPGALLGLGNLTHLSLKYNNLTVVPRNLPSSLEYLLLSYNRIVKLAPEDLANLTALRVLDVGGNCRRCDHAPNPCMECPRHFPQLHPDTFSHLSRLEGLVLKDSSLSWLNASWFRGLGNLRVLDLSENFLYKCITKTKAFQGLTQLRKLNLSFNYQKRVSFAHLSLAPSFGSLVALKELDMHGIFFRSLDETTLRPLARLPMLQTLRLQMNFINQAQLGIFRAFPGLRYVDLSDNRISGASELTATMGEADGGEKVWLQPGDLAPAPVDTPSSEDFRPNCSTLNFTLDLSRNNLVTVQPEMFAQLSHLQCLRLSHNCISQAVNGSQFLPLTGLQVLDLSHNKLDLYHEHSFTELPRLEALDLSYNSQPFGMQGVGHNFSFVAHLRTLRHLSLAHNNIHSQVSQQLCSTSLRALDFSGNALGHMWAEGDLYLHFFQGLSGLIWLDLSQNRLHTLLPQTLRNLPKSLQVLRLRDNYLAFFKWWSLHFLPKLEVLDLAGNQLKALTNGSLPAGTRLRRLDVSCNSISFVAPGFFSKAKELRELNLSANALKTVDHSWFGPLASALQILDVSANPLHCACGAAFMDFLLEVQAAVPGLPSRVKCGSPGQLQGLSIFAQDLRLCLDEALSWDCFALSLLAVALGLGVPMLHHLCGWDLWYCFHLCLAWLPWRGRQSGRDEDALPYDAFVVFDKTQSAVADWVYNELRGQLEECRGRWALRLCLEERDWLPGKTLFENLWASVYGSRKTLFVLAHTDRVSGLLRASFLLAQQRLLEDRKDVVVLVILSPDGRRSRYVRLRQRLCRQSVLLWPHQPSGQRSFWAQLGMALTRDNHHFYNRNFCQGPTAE",
  "assay": "Activity on TLR9",
  "format": "cell-based",
  "details": "concentrations up to 25 μM",
  "procedure": "The half-maximal effective concentration (EC50) for VTX-2337 activation of TLR8 and TLR7 was assessed in peripheral blood mononuclear cells (PBMCs) from 15 healthy donors and also in HEK293 cells transfected with TLR8 or TLR7 and an NF-κB driven reporter gene. […] Also it was observed that VTX-2337 had no activity on TLR2, TLR3, TLR4, TLR5, TLR6, or TLR9 at concentrations up to 25 μM.",
  "data": [
    {"smiles": "CCCN(CCC)C(=O)C1=Cc2ccc(-c3ccc(C(=O)N4CCCC4)cc3)cc2N=C(N)C1", "note": "[VTX-2337, 2-amino-N,N-dipropyl-8-(4-(pyrrolidine-1-carbonyl)phenyl)-3H-benzo[b]azepine-4-carboxamide]", "values": [
      {"measurement": "activity on TLR9", "result": "no activity"}
    ]}
  ]
}
